Laboratory results as given in ChEMBL document CHEMBL1201862, “PubChem BioAssay data set” (2004).
Active and inactive are the calls of the source.

Assays:
[1] = biological target: DNA damage-inducible transcript 3 protein (Mus musculus, UniProt P35639); format: functional, Cricetulus griseus
[2] = biological target: T1, Microphthalmia-associated transcription factor (Homo sapiens, UniProt O75030); assay: reducers of TRPM1 reporter luminescence, concentration series – cell-based, SK-MEL-5, cherry-picked, set 3, MITF inhibitor project, dose response (AID 493073); format: functional;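 also: SK-MEL-5 melanoma cells with luciferase driven by the MITF target TRPM1 promoter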
T1 sequence (O75030 whole entry): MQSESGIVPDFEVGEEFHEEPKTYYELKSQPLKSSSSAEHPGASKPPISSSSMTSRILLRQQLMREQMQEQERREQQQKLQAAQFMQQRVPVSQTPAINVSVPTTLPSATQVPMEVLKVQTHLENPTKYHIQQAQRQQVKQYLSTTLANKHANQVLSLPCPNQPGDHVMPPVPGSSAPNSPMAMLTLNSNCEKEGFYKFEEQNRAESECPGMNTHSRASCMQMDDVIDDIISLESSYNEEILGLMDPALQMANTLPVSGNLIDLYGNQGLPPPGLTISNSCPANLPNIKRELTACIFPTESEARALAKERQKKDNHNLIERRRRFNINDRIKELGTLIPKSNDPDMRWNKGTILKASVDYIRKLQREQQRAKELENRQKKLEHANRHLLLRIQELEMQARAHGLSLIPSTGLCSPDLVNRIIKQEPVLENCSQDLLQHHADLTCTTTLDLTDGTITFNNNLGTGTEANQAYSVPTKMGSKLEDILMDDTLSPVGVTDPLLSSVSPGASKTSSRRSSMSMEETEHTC

[3] = biological target: Melanocortin receptor 4 (Homo sapiens, UniProt P32245); format: functional, cell-based;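 also: Cell-based assay with luminescence read-out, confirmatory dose-response testing for agonist activity of biased ligands at MC4R; human U2OS cells with tagged receptor and beta-arrestin; potency of agonists that increase receptor coupling to beta-arrestin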
[4] = biological target: T2, G-protein coupled receptor 55 (Homo sapiens, UniProt Q9Y2T6); assay: inhibition of LPI-stimulated GPR55 beta-arrestin translocation – imaging, U2OS, beta-arrestin-GFP, LPI agonist, primary screen (AID 2013); format: functional;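 also: antagonist potency measured as reduced agonist-driven arrestin aggregation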
[5] = biological target: T3, Cannabinoid receptor 1 (Homo sapiens, UniProt P21554); assay: SAR analysis of antagonists of the Cannabinoid Receptor 1 using an Image-Based Assay - Set 2. [Related pubchem assays (depositor defined):AID2013, AID2026]; format: functional
[6] = biological target: T4, G-protein coupled receptor 35 (Homo sapiens, UniProt Q9HC97); assay: SAR analysis of Agonists of the GPR35 Receptor using an Image-Based Assay - Set 2. [Related pubchem assays (depositor defined):AID2013, AID2026]; format: functional
[7] = biological target: T5, Cannabinoid receptor 2 (Homo sapiens, UniProt P34972); assay: SAR analysis of antagonists of the Cannabinoid Receptor 2 using an Image-Based Assay. [Related pubchem assays (depositor defined):AID2013, AID2026]; format: functional
[8] = biological target: T3, Cannabinoid receptor 1; assay: SAR analysis of agonists of the Cannabinoid Receptor 1 using an Image-Based Assay - Set 2. [Related pubchem assays (depositor defined):AID2013, AID2026]; format: functional
[9] = biological target: T4, G-protein coupled receptor 35; assay: SAR analysis of Antagonists of the GPR35 Receptor using an Image-Based Assay - Set 3. [Related pubchem assays (depositor defined):AID2013, AID2026]; format: functional
[10] = biological target: T2, G-protein coupled receptor 55; assay: blockade of LPI-induced GPR55 arrestin translocation – imaging, U2OS, beta-arrestin-GFP, LPI agonist, set 2, SAR follow-up (AID 2820); format: functional
[11] = biological target: T5, Cannabinoid receptor 2; assay: SAR analysis of agonists of the Cannabinoid Receptor 2 using an Image-Based Assay. [Related pubchem assays (depositor defined):AID2013, AID2026]; format: functional
[12] = test system: A-375; assay: MITF: Counter assay: A375 proliferation Measured in Cell-Based System Using Plate Reader - 2084-03_Inhibitor_Dose_DryPowder_Activity. [Related pubchem assays (depositor defined):AID488944]; format: functional; details: Homo sapiens
[13] = test system: Streptococcus sp. 'group A'; assay: Streptococcus pyogenes SK(-)GAS viability under kanamycin – luminescence, BacTiterGlo, confirmation, counter-screen for streptokinase expression inhibitor project, dose response (AID 1900); format: functional, organism-based
[14] = test system: Streptococcus; assay: GAS UMAA2166 growth inhibition – luminescence, BacTiterGlo, counter-screen for streptokinase expression inhibitor project, dose response (AID 1915); format: functional, organism-based;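 also: potency for reduction of bacterial viability or growth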
[15] = biological target: Beta-galactosidase (Escherichia coli, UniProt Q8VNN2); assay: detection-enzyme interference by beta-gal modulators – biochemical, E. coli enzyme, set 3, artefact control for CCR6 antagonist project, dose response (AID 504712); format: functional
[16] = test system: Vero; assay: viability of Vero cells under compound – cytotoxicity control for flavivirus capping enzyme inhibitors (AID 588742); format: functional; details: Chlorocebus sabaeus
[17] = biological target: Genome polyprotein (dengue virus type 2, UniProt P29990); assay: flavivirus cap methylation enzyme inhibition – biochemical, confirmation dose response, primary screen (AID 588689); format: functional
[18] = biological target: T6, Probable nicotinate-nucleotide adenylyltransferase (Staphylococcus aureus (strain N315), UniProt P65502); format: functional, Staphylococcus aureus subsp. aureus N315;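 as to IC50 Mean: confirmatory dose-response retesting of NadD inhibitor hits first found in an ultra-high-throughput screen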
[19] = biological target: T6, Probable nicotinate-nucleotide adenylyltransferase; format: functional, Staphylococcus aureus subsp. aureus N315; details: read-out: IC50_Mean
[20] = biological target: T7, Fatty acid synthase (Homo sapiens, UniProt P49327); assay: inhibition of human FAS-TE enzyme activity – biochemical, endpoint fluorescence intensity, uHTS hits, dose response (AID 624327); format: functional;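 also: fluorescence from hydrolysis of an O-methyl fluorescein acyl ester substrate by the enzyme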
[21] = biological target: T7, Fatty acid synthase; assay: inhibition of human FAS-TE enzyme activity – biochemical, kinetic fluorescence intensity, dose response (AID 624326); format: functional;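 also: rate of fluorescence rise from hydrolysis of a fluorogenic O-methyl fluorescein ester substrate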
[22] = biological target: fMet-Leu-Phe receptor (Homo sapiens, UniProt P21462); assay: formyl peptide receptor binders – dose response (AID 519); format: functional
[23] = biological target: Peroxisome proliferator-activated receptor gamma/Nuclear receptor coactivator 1 (Homo sapiens, UniProt P37231); assay: (§1) TR-FRET dose response biochemical High Throughput Screening assay for agonists of the steroid receptor coactivator 1 (SRC-1) recruitment by the peroxisome proliferator-activated receptor gamma (PPAR gamma): non-selective agonists. [Related pubchem assays (depositor defined):AID1300, AID1808, AID504735, AID631]; format: protein assay
[24] = biological target: Peroxisome proliferator-activated receptor gamma/Nuclear receptor coactivator 3 (Homo sapiens, UniProt P37231); assay: as §1, with “3 (SRC-3)” for “1 (SRC-1)”, “assays: 1301 (Confirmation screen.), 1048 (Primary screen.)]” for “assays (depositor defined):AID1300, AID1808, AID504735, AID631]”; format: functional
[25] = biological target: Peroxisome proliferator-activated receptor gamma/Nuclear receptor coactivator 2 (Homo sapiens, UniProt P37231); assay: TR-FRET dose response biochemical High Throughput Screening assay for agonists of the steroid receptor coactivator 2 (SRC-2) recruitment by the peroxisome proliferator-activated receptor gamma (PPAR gamma): non-selective agonists. [Related pubchem assays: 1297, 1032 ]; format: functional
[26] = biological target: Intestinal-type alkaline phosphatase (Homo sapiens, UniProt P09923); assay: human intestinal alkaline phosphatase activators, dose response, biochemical, luminescence, uHTS hits (AID 463120); format: functional
[27] = biological target: Cytochrome P450 2C19 (Homo sapiens, UniProt P33261); assay: Cytochrome panel assay with activity outcomes. Panel member name: p450-cyp2c19 Compounds with AC50 equal or less than 10 uM are considered active; format: functional
[28] = biological target: T8, Cytochrome P450 1A2 (Homo sapiens, UniProt P05177);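 also: PubChem cytochrome P450 panel assay, CYP1A2 panel member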
T8 sequence (P05177 whole entry): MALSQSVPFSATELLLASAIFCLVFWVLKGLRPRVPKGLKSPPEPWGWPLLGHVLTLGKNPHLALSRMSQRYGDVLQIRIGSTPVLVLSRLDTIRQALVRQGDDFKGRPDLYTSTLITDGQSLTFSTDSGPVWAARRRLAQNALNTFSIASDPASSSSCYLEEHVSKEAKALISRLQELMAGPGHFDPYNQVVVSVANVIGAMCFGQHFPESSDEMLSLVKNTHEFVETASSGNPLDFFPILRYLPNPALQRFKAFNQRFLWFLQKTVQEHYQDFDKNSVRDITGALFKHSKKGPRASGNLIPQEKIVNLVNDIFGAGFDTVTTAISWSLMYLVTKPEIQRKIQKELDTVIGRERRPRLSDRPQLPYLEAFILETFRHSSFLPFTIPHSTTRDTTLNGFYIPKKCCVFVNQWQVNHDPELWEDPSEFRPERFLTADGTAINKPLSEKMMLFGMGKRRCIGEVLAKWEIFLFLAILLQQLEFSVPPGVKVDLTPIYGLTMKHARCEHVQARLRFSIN

[29] = biological target: Cytochrome P450 2D6 (Homo sapiens, UniProt P10635);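 also: CYP2D6 member of a cytochrome P450 panel assay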
[30] = biological target: T4, G-protein coupled receptor 35; assay: SAR analysis of Agonists of the GPR35 Receptor using an Image-Based Assay - Set 4. [Related pubchem assays (depositor defined):AID2013, AID2026]; format: functional
[31] = biological target: T3, Cannabinoid receptor 1; assay: SAR analysis of agonists of the Cannabinoid Receptor 1 using an Image-Based Assay - Set 4. [Related pubchem assays (depositor defined):AID2013, AID2026]; format: functional
[32] = biological target: T4, G-protein coupled receptor 35; assay: SAR analysis of Antagonists of the GPR35 Receptor using an Image-Based Assay - Set 6. [Related pubchem assays (depositor defined):AID2013, AID2026]; format: functional
[33] = biological target: T3, Cannabinoid receptor 1; assay: SAR analysis of antagonists of the Cannabinoid Receptor 1 using an Image-Based Assay - Set 4. [Related pubchem assays (depositor defined):AID2013, AID2026]; format: functional
[34] = biological target: T2, G-protein coupled receptor 55; assay: SAR Analysis of Selective Antagonists of GPR55 using an Image-Based Assay - Set 4. [Related pubchem assays (depositor defined):AID2013, AID2026]; format: functional
[35] = biological target: T5, Cannabinoid receptor 2; assay: SAR analysis of antagonists of the Cannabinoid Receptor 2 using an Image-Based Assay - Set 3. [Related pubchem assays (depositor defined):AID2013, AID2026]; format: functional
[36] = biological target: T5, Cannabinoid receptor 2; assay: SAR analysis of agonists of the Cannabinoid Receptor 2 using an Image-Based Assay - Set 3. [Related pubchem assays (depositor defined):AID2013, AID2026]; format: functional
[37] = biological target: Voltage-dependent T-type calcium channel subunit alpha-1H (Homo sapiens, UniProt O95180); assay: human CACNA1H calcium influx blockade – cell-based, synthetic library set 2, HEK293 HH8, Fluo-4, SAR follow-up (AID 493023); format: functional
[38] = biological target: Hexokinase (Trypanosoma brucei, UniProt Q38C41); assay: Confirmation assay for inhibitors of Trypanosoma brucei hexokinase 1-Analogue-first series. [Related pubchem assays (depositor defined):AID1430, AID1632, AID2516, AID2560, AID2579, AID2600, AID449725, AID492951]; format: functional
[39] = THP-1 cell cytotoxicity, dose response, cytotoxicity control for non-replicating M. tuberculosis project (AID 489025); format: functional
[40] = Vero E6 cell cytotoxicity, dose response, cytotoxicity control for non-replicating M. tuberculosis project, secondary assay (AID 492998); format: functional, VeroE6; details: Vero C1008
[41] = cells; format: functional

T5 sequence (P34972 whole entry): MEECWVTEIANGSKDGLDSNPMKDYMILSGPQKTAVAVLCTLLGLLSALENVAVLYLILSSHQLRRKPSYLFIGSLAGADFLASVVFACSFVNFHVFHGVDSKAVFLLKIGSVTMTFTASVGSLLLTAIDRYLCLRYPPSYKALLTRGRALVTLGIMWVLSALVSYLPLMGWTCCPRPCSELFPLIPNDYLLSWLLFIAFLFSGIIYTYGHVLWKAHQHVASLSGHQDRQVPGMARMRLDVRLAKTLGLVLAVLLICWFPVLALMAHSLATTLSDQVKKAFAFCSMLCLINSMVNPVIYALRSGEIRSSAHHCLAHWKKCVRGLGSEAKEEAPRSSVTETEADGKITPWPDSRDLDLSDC
T2 sequence (Q9Y2T6 whole entry): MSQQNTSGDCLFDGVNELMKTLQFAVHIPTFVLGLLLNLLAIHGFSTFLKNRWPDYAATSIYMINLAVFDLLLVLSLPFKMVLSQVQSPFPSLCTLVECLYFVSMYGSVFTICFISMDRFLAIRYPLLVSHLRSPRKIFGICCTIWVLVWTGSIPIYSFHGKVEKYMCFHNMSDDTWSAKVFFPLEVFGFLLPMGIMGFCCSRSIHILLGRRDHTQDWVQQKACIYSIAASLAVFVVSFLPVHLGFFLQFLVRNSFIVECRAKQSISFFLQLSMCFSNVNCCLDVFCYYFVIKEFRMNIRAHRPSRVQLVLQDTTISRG
T4 sequence (Q9HC97 whole entry): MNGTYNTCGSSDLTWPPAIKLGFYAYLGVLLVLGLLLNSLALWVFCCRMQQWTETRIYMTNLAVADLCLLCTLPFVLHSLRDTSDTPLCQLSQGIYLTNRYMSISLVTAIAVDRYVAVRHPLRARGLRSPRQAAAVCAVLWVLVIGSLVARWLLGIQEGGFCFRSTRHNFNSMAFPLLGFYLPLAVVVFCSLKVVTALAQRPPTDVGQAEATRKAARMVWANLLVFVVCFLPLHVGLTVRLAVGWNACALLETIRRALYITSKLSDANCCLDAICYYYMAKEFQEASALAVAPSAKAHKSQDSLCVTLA
T3 sequence (P21554 whole entry): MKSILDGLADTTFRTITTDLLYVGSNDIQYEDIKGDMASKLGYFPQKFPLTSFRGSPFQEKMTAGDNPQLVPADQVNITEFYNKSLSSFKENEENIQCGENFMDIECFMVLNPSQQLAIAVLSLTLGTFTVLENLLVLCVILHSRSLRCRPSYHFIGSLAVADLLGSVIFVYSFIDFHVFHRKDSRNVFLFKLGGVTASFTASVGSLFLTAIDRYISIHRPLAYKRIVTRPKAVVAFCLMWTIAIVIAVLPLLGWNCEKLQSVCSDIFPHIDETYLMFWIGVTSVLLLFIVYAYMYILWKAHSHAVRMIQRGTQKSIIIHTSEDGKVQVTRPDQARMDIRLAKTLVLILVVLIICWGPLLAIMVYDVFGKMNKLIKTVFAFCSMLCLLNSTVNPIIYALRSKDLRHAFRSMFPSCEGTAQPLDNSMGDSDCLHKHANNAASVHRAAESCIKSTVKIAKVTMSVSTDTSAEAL
T7 sequence (P49327 whole entry): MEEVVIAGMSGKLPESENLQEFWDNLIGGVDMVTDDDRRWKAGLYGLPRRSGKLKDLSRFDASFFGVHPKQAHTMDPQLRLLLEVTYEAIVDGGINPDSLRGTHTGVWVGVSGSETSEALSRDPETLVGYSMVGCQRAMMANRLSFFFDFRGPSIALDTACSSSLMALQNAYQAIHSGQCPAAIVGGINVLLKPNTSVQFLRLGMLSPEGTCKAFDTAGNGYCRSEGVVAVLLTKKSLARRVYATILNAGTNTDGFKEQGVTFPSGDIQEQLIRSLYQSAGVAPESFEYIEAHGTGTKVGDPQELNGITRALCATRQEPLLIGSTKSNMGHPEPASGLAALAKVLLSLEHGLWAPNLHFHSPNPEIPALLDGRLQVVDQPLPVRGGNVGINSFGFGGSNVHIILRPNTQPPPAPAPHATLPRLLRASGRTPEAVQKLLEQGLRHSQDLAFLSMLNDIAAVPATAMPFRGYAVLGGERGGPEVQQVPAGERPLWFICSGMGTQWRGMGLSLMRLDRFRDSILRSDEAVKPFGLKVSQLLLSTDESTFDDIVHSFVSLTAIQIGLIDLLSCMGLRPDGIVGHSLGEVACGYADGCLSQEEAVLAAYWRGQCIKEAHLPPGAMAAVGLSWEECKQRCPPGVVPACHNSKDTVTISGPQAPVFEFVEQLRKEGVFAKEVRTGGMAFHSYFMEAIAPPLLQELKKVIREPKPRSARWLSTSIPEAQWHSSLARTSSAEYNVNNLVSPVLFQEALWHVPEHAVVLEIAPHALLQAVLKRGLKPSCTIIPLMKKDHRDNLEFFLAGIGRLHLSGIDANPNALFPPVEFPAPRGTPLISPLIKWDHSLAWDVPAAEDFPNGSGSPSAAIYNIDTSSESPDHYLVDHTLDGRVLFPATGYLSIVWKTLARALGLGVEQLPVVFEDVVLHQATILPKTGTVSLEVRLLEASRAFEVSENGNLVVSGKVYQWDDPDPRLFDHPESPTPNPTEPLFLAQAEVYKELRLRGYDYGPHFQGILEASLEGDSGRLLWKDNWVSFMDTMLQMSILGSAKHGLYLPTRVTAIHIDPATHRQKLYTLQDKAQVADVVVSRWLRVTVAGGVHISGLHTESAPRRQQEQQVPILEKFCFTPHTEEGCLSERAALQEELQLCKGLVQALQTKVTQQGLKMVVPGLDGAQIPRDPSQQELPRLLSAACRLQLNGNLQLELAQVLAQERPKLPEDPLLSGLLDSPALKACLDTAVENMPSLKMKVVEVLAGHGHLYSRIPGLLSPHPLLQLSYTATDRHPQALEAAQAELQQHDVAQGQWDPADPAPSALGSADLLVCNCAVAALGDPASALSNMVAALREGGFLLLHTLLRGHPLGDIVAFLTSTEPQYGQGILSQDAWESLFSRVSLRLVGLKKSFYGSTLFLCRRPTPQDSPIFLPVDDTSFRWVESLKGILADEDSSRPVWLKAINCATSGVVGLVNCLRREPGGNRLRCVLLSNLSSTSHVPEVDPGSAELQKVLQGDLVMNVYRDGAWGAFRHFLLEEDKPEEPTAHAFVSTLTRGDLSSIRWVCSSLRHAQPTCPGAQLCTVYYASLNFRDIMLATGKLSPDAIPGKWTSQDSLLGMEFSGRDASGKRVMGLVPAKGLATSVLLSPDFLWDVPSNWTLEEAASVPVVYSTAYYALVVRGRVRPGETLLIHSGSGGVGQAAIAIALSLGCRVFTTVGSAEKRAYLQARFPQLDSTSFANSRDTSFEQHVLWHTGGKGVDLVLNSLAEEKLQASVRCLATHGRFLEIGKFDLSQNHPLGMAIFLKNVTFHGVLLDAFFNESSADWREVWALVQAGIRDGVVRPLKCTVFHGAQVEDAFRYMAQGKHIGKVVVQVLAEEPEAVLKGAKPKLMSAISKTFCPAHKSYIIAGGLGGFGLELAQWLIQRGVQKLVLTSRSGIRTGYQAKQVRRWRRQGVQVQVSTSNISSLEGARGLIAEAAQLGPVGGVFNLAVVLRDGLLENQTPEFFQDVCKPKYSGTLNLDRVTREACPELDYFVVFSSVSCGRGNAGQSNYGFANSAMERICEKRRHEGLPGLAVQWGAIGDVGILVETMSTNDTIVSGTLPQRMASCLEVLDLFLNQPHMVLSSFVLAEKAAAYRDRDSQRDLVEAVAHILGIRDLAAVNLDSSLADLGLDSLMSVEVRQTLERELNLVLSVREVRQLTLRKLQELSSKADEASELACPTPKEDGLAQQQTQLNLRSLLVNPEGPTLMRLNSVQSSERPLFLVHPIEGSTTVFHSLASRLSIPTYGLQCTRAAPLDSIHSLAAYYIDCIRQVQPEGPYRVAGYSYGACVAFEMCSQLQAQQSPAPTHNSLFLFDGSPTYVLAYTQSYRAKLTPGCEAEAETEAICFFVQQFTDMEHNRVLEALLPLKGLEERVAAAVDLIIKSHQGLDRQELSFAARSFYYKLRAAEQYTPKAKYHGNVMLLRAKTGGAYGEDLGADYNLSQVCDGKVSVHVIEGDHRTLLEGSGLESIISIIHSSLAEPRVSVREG
T6 sequence (P65502 whole entry): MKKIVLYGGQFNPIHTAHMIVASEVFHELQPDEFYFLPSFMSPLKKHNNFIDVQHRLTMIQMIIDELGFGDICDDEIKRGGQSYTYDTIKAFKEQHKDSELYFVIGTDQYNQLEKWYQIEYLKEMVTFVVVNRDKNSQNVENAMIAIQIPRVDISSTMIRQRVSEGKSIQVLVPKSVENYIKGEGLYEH
Cytochrome P450 2D6, sequence (P10635 whole entry): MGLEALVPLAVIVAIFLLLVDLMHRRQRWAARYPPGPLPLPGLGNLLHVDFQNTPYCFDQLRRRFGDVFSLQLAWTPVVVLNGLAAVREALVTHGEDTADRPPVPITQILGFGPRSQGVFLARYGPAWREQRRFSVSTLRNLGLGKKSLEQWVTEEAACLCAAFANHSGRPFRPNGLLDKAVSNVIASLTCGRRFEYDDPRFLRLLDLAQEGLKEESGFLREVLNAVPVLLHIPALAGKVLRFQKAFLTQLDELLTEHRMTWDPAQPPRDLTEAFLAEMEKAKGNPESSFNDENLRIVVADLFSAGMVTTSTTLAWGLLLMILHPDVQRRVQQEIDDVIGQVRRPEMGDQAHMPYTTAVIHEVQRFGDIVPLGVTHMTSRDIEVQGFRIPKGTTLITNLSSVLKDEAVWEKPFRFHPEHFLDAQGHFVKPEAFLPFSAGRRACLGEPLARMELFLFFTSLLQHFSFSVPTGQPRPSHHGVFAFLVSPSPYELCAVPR
fMet-Leu-Phe receptor, sequence (P21462 whole entry): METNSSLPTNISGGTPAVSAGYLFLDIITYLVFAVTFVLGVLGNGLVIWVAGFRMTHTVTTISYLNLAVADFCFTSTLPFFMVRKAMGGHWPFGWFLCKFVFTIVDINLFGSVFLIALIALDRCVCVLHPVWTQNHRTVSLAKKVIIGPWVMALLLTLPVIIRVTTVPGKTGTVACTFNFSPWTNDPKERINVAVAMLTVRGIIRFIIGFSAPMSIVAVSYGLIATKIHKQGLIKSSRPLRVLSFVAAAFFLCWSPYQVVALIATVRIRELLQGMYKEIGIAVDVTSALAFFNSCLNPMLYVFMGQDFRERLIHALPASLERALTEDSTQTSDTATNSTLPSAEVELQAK

With `COc1cc(NC(=O)COc2ccccc2[N+](=O)[O-])ccc1NC(=O)c1cccs1` the “Absolute IC50 (CHOP)” value [1] was 10 µM, the AC50 [2] was 10.1 µM (active) and the EC50 [3] was > 89.2 µM (inactive).
For `COc1ccc(CNCCC(c2ccc(F)cc2)c2ccc(OC)cc2)cc1` (configuration not stated), the IC50 [4] was 1.78 µM (active), the IC50 [5] was 2.7 µM (active) and the EC50 [6] was 23.1 µM (inactive). For the same compound, the IC50 [7] was 24.2 µM (inactive), the EC50 [8] was > 32 µM (inactive) and the IC50 [9] was > 32 µM (inactive). For the same compound, the IC50 [10] was 1.69 µM (active), the EC50 [11] was > 32 µM (inactive) and the AC50 [2] was 9.89 µM (active). The AC50 [12] was 16.3 µM (active).
In the case of `Cc1nn2c(O)cc(-c3ccc([N+](=O)[O-])cc3)nc2c1-c1ccccc1`, the EC50 [13] is reported as 0.662 µM (active), the EC50 [14] is reported as 1.44 µM (active) and the IC50 [15] is reported as > 66.6 µM (inactive). For the same compound, the CC50 [16] was 29.6 µM (active), the IC50 [17] was 36.5 µM (active) and the IC50 [18] was 8.02 µM (active). The IC50 [19] was 30.2 µM (active), the IC50 [20] was 11.2 µM (active) and the IC50 [21] was 6.29 µM (active). The Ki [22] was > 66.7 µM (inactive).
In the case of `COc1ccc2c(c1)nc(SCC(=O)c1ccc(Br)s1)n2C`, the EC50 [23] is reported as > 79.4 µM (inactive), the EC50 [24] is reported as > 79.4 µM (not active) and the EC50 [25] is reported as 27.7 µM (not active).
For `COc1ccc(C(=O)Nc2cccc3c2C(=O)NC3=O)cc1S(=O)(=O)N1CCOCC1`, the EC50 [26] was > 100 µM (inactive), the AC50 [27] was “inconclusive” and the AC50 [28] was 1 µM (inconclusive). The AC50 [29] was “inconclusive”.
In the case of `Cc1ccc(-c2nnc(C)c3nn(-c4ccc(C)cc4)cc23)cc1`, the EC50 [30] is reported as > 32 µM (inactive), the EC50 [31] is reported as > 32 µM (inactive) and the IC50 [32] is reported as 15.4 µM (inactive). The IC50 [33] was 2.59 µM (active), the IC50 [34] was > 32 µM (inactive) and the IC50 [35] was > 18 µM (inactive). The EC50 [36] was > 32 µM (inactive).
With `CC(C)(C)CCN1CCC[C@@H](NC(=O)c2cc(Cl)cc(Cl)c2)C1` the EC50 [37] was 10 µM (active).
For `O=C1CCN(C(=O)Nc2cc(Cl)ccc2C(=O)O)CC1`, the IC50 [38] was > 25 µM (inactive).
In the case of `O=C(N/N=C\c1ccc(Cl)s1)C1COc2ccccc2O1` (configuration not stated), the CC50 [39] is reported as 16.3 µM (active), the CC50 [40] is reported as 19.4 µM (active) and the IC50 [41] is reported as 5.63 µM (active).
